Experimental data published in US20250214993A1, “AROMATIC RING COMPOUND AND USE THEREOF” (SHANGHAI SHIJIANG BIOTECHNOLOGY CO., LTD, priority 2022, published 2025).

Key:
Assay type in all cases: cell-based
[1] = test system: mPTP-inactive Daoy cell; assay: Cell viability (Promega CellTiter-Glo), IC50 on mPTP-inactive Daoy cell (PPIF shRNA); details: Homo sapiens; Daoy cell transfected with PPIF shRNA vector
[2] = test system: ov-NNMT NCI-H82 cell; assay: Cell viability (Promega CellTiter-Glo, intracellular ATP), IC50 on NNMT-overexpressing NCI-H82 cell; details: Homo sapiens; NCI-H82 cell overexpressing NNMT protein
From the text: (§1) The expression of NNMT protein in NCI-H82 cell was overexpressed by inserting the NNMT gene into NCI-H82 cell using a viral vector, and the NNMT protein-overexpressing NCI-H82 cell (ov-NNMT NCI-H82 cell) was obtained. The normal and untreated NCI-H82 cell (Con-NCI-H82 cell) was used as control. The expressing content of NNMT protein in the ov-NNMT NCI-H82 cell and Con-NCI-H82 cell was detected using Western Blot assay (as shown in FIG. 1), it could be seen from FIG. 1 that the NNMT protein was overexpressed in the ov-NNMT NCI-H82 cell compared with the expression level of NNMT protein in the Con-NCI-H82 cell.
(§2) The cell viability was detected using the Promega CellTiter-Glo kit which reflected cell viability by measuring intracellular ATP content. The Con-NCI-H82 cell and ov-NNMT NCI-H82 cell was cultured in 10% fetal bovine serum-containing RPMI1640 medium (+P/S).

[3] = test system: Con-NCI-H82 cell; assay: Cell viability (Promega CellTiter-Glo, intracellular ATP), IC50 on Con-NCI-H82 cell; details: Homo sapiens; normal untreated NCI-H82 cell (control)
From the text: as §1, §2

[4] = test system: mPTP-active Daoy cell; assay: Cell viability (Promega CellTiter-Glo), IC50 on mPTP-active Daoy cell; details: Homo sapiens; Daoy cell transfected with empty virus vector

| IC50 [2] [nM] | SMILES | IC50 [1] [nM] | IC50 [3] [nM] | IC50 [4] [nM] |
| --- | --- | --- | --- | --- |
| 245 | Cc1ccc(C(=O)Cn2c(C)cc3c[n+](Cc4ccccc4)ccc32)cc1 [AB27277] | 30 | 15 | 160 |
| 1740 | O=C1c2cc(F)ccc2CCC1[n+]1ccc2c(ccn2Cc2ccccc2)c1 (centres unmarked) [AB27356] | 940 | 130 | 5540 |
| 1580 | O=C1c2cc(Cl)ccc2CCC1[n+]1cnc2c(ccn2Cc2ccccc2)c1 (centres unmarked) [AB27140] | 1480 | 182 | 3660 |
| 857 | CC(=O)N(Cc1ccccc1)c1cc[n+](CC(=O)c2ccc(C)cc2)c(C)c1 [AB27222] | 660 | 56 | 1750 |
| 184 | O=C1c2cc(OC(F)(F)F)ccc2CCC1n1ccc2c[n+](Cc3ccccc3)ccc21 (centres unmarked) [AB27191] | 40 | 10 | 250 |
| 11000 | O=C(Cn1ncc2c[n+](Cc3ccccc3)ccc21)c1cccc(OC(F)(F)F)c1 [AB27498] | 1960 | 2180 | 9890 |
| 383 | Cc1cc2c[n+](Cc3ccccc3)ccc2n1CC(=O)c1cccc(C(F)(F)F)c1 [AB27456] | 130 | 22 | 380 |
| 214 | Cc1cn(C2CCc3ccc(Cl)cc3C2=O)c2cc[n+](Cc3ccccc3)cc12 (centres unmarked) [AB27188] | 40 | 14 | 230 |
| 1240 | Cc1cn(C2CCc3ccc(F)cc3C2=O)c2cc[n+](C(C)c3ccccc3)cc12 (centres unmarked) [AB27459] | 840 | 86 | 2430 |
| 1050 | CCc1cn(Cc2ccccc2)c2cc[n+](C3CCc4ccc(Cl)cc4C3=O)cc12 (centres unmarked) [AB27171] | 690 | 63 | 1940 |
| 8030 | Cc1c(Cl)c2c[n+](Cc3ccccc3)ccc2n1CC(=O)c1cccc(C(F)(F)F)c1 [AB27484] |  | 1190 |  |
| 9490 | CC(c1ccccc1)[n+]1ccc2c(ccn2C2CCc3ccoc3C2=O)c1 (centres unmarked) [AB27205] |  | 2790 |  |
| 1860 | Cc1ccc2c(c1)CCC([n+]1ccc3c(c1)c(C)cn3Cc1ccccc1)C2=O (centres unmarked) [AB27177] |  | 131 |  |
| 5480 | O=C(C[n+]1ccc2c(c1)CCC(c1ccccc1)N2)c1cccc(OC(F)(F)F)c1 (centres unmarked) [AB27147] |  | 1390 |  |
| 4530 | Cc1cc(NCc2ccccc2)cc[n+]1CC(=O)c1ccc(OC(F)(F)F)cc1 [AB27274] |  | 664 |  |
| 284 | Cc1ccc(C(=O)C[n+]2ccc(NCc3ccccc3)c(C)c2C)cc1 [AB27278] |  | 21 |  |
| 1980 | Cc1ccc(C(=O)C[n+]2ccc(N(Cc3ccccc3)C(=O)C(C)C)cc2)cc1 [AB27235] |  | 178 |  |
| 7360 | CC(=O)C[n+]1ccc2c(ccn2C2CCc3ccc(Cl)cc3C2=O)c1 (centres unmarked) [AB27313] |  | 4370 |  |
| 4590 | O=C(C[n+]1ccc2c(c1)CCC(c1ccccc1)N2)c1ccc(C(F)(F)F)cc1 (centres unmarked) [AB27102] |  | 1160 |  |
| 10500 | Cc1ccc(C(=O)C[n+]2ccc3c(Cc4ccccc4)cn(C)c3c2)cc1 [AB27341] |  | 3590 |  |
| 1650 | O=C1c2cc(OC(F)(F)F)ccc2CCC1[n+]1ccc2c(ccn2CC2CC2)c1 (centres unmarked) [AB27247] |  | 403 |  |

| IC50 [2] [nM] | SMILES | IC50 [1] [nM] | IC50 [3] [nM] | IC50 [4] [nM] |
| --- | --- | --- | --- | --- |
| 12700 | O=C1c2sc(Cl)nc2CCC1[n+]1ccc2c(ccn2Cc2ccccc2)c1 (centres unmarked) [AB27254] |  | 3590 |  |
| 2540 | Cc1ccc2c(c1)C(=O)C([n+]1ccc3cn(Cc4ccccc4)cc3c1)CC2 (centres unmarked) [AB27287] |  | 198 |  |
| 2550 | Cc1ccc2c(c1)C(=O)C(n1ncc3c[n+](Cc4ccccc4)ccc31)CC2 (centres unmarked) [AB31776] |  | 146 |  |
| 2180 | O=C(Cn1cc(Cl)c2c[n+](Cc3ccccc3)ccc21)c1cccc(Cl)c1 [AB27269] |  | 233 |  |
| 5580 | O=C(C[n+]1ccc2c(ccn2C2CCc3ccc(Cl)cc3C2=O)c1)c1ccccc1 (centres unmarked) [AB27314] |  | 3040 |  |
| 7620 | O=C1c2occc2CCC1[n+]1ccc2c(ccn2Cc2ccccc2)c1 (centres unmarked) [AB27206] |  | 2540 |  |
| 5430 | Cc1cn(C2CCc3ccc(OC(F)(F)F)cc3C2=O)c2cc[n+](C(C)c3ccccc3)cc12 (centres unmarked) [AB27469] |  | 427 |  |
| 2220 | O=C(Cn1ccc2c[n+](Cc3ccccc3)ccc21)c1ccc(C(F)(F)F)cc1 [AB27264] |  | 267 |  |
| 6530 | O=C1c2ccc(C(F)(F)F)cc2CCC1[n+]1ccc2cn(Cc3ccccc3)cc2c1 (centres unmarked) [AB27294] |  | 1050 |  |
| 13400 | Cc1nc2c(s1)C(=O)C([n+]1ccc3c(ccn3Cc3ccccc3)c1)CC2 (centres unmarked) [AB27204] |  | 3450 |  |
| 525 | Cc1ccc(C(=O)C[n+]2ccc(NCc3ccccc3)cc2C(C)C)cc1 [AB27237] |  | 39 |  |
| 1840 | Cc1ccc(C(=O)CN(CC(=O)c2ccc(C)cc2)c2cc[n+](Cc3ccccc3)cc2)cc1 [AB27299] |  | 674 |  |
| 204 | Cc1ccccc1C[n+]1ccc2c(ccn2C2CCc3ccc(Cl)cc3C2=O)c1 (centres unmarked) [AB27242] |  | 15 |  |
| 3170 | CCCn1ccc2c[n+](C3CCc4ccc(C(F)(F)F)cc4C3=O)ccc21 (centres unmarked) [AB27150] |  | 632 |  |
| 3580 | Cc1ccc(C(=O)C[n+]2ccc3cn(Cc4ccccc4)cc3c2)cc1 [AB27296] |  | 396 |  |
| 184 | Cc1cccc(C[n+]2ccc3c(ccn3C3CCc4ccc(Cl)cc4C3=O)c2)c1 (centres unmarked) [AB27241] |  | 14 |  |
| 1210 | Cc1cc2c[n+](Cc3ccccc3)ccc2n1C1CCc2ccc(F)cc2C1=O (centres unmarked) [AB27473] |  | 81 |  |
| 6700 | O=C1c2cc(Cl)ccc2CCC1[n+]1ccc2c(ccn2C(=O)c2ccccc2)c1 (centres unmarked) [AB27214] |  | 1740 |  |
| 5490 | O=C(C[n+]1ccc(NCc2ccccc2)nc1)c1cccc(C(F)(F)F)c1 [AB27160] |  | 744 |  |
| 6790 | O=C(C[n+]1ccc2c(c1)CCC(c1ccccc1)N2)c1cccc(C(F)(F)F)c1 (centres unmarked) [AB27146] |  | 1710 |  |
| 6030 | Cc1cn(C2CCc3ccc(C(F)(F)F)cc3C2=O)c2cc[n+](C(C)c3ccccc3)cc12 (centres unmarked) [AB27468] |  | 571 |  |

| IC50 [2] [nM] | SMILES | IC50 [1] [nM] | IC50 [3] [nM] | IC50 [4] [nM] |
| --- | --- | --- | --- | --- |
| 10800 | O=C1c2cc(Cl)ccc2CCC1[n+]1ccc2c(ccn2S(=O)(=O)c2ccccc2)c1 (centres unmarked) [AB27215] |  | 1610 |  |
| 567 | O=C1c2cc(Cl)ccc2CCC1n1cc(Cl)c2c[n+](Cc3ccccc3)ccc21 (centres unmarked) [AB27271] |  | 34 |  |
| 1130 | Cc1cc(NCc2ccccc2)cc[n+]1CC(=O)c1cccc(OC(F)(F)F)c1 [AB27276] |  | 92 |  |
| 9350 | Cc1cn(CC(=O)c2ccc(OC(F)(F)F)cc2)c2cc[n+](Cc3ccccc3)cc12 [AB27461] |  | 1980 |  |
| 322 | O=C(Cn1ccc2c[n+](Cc3ccccc3)ccc21)c1cccc(OC(F)(F)F)c1 [AB27263] |  | 32 |  |
| 6840 | O=C(Cn1ncc2c[n+](Cc3ccccc3)ccc21)c1cccc(C(F)(F)F)c1 [AB27499] |  | 921 |  |
| 2050 | Cc1cn(CC(=O)c2cccc(F)c2)c2cc[n+](C(C)c3ccccc3)cc12 (centres unmarked) [AB27479] |  | 258 |  |
| 2490 | O=C1c2cc(C(F)(F)F)ccc2CCC1[n+]1ccc2cn(Cc3ccccc3)cc2c1 (centres unmarked) [AB27288] |  | 344 |  |
| 944 | O=C1c2ccc(C(F)(F)F)cc2CCC1n1ccc2c[n+](Cc3ccccc3)ccc21 (centres unmarked) [AB27290] |  | 91 |  |
| 332 | O=C1c2cc(F)ccc2CCC1n1ccc2c[n+](Cc3ccccc3)ccc21 (centres unmarked) [AB27353] |  | 19 |  |
| 3690 | Cc1cn(CC(=O)c2cccc(Cl)c2)c2cc[n+](C(C)c3ccccc3)cc12 (centres unmarked) [AB27270] |  | 401 |  |
| 184 | O=C1c2cc(Cl)ccc2CCC1n1ccc2c[n+](Cc3ccccc3Cl)ccc21 (centres unmarked) [AB27243] |  | 15 |  |
| 2900 | Cn1cc(Cc2ccccc2)c2cc[n+](C3CCc4ccc(OC(F)(F)F)cc4C3=O)cc21 (centres unmarked) [AB27339] |  | 341 |  |
| 5430 | O=C1c2ccc(OC(F)(F)F)cc2CCC1[n+]1ccc2c(c1)CCC(c1ccccc1)N2 (centres unmarked) [AB27105] |  | 874 |  |
| 5870 | Cc1ccc(C(=O)C[n+]2ccc3c(Cc4ccccc4)cn(C)c3c2C)cc1 [AB27343] |  | 2040 |  |
| 1040 | Cc1ccc(C(=O)C[n+]2ccc(NCc3ccccc3)cc2C)cc1C [AB27327] |  | 67 |  |
| 2990 | Cc1ccc(C(=O)C[n+]2ccc3c(c2)CCN3c2ccccc2)cc1 [AB24994] |  | 810 |  |
| 1320 | Cc1ccc(C(=O)Cn2cc(C)c3c[n+](Cc4ccccc4)ccc32)cc1 [AB27268] |  | 104 |  |
| 19000 | O=C(Cn1ncc2c[n+](Cc3ccccc3)ccc21)c1ccc(C(F)(F)F)cc1 [AB31705] |  | 5370 |  |
| 13500 | Cc1ccc(C(=O)C[n+]2ccc(NCc3ccc(C)nc3)cc2C)cc1 [AB27330] |  | 5110 |  |
| 222 | CC(c1ccccc1)[n+]1ccc2c(ccn2C2CCc3ccc(F)cc3C2=O)c1 (centres unmarked) [AB27354] |  | 13 |  |
